“And” between values parts separate entries of the source, which are not always exact repeats. Identical values can stand only once.
Columns and labels:
in vitro = details: human
PfPI3K = details: read-out: IC50 PfPI3K; in vitro; cited from earlier work
[1] = biological target: casein kinase 1 (CK1; PF3D7_1136500) (Plasmodium falciparum, UniProt Q8IHZ9); assay: Kinobead chemoproteomic competition binding, Pf3D7 ABS extract
[2] = Whole-blood pharmacokinetics in NSG mouse efficacy study, LC-MS/MS; assay type: in vivo, NSG mice
[3] = biological target: T1, cdc2-related protein kinase 5 (CRK5; PF3D7_0615500) (Plasmodium falciparum, UniProt C6KSZ6); assay: Kinobead chemoproteomic competition binding, Pf3D7 ABS extract; details: read-out: Kd app for CRK5; Kinobeads, P. falciparum ABS extract
T1 sequence (C6KSZ6 1-705): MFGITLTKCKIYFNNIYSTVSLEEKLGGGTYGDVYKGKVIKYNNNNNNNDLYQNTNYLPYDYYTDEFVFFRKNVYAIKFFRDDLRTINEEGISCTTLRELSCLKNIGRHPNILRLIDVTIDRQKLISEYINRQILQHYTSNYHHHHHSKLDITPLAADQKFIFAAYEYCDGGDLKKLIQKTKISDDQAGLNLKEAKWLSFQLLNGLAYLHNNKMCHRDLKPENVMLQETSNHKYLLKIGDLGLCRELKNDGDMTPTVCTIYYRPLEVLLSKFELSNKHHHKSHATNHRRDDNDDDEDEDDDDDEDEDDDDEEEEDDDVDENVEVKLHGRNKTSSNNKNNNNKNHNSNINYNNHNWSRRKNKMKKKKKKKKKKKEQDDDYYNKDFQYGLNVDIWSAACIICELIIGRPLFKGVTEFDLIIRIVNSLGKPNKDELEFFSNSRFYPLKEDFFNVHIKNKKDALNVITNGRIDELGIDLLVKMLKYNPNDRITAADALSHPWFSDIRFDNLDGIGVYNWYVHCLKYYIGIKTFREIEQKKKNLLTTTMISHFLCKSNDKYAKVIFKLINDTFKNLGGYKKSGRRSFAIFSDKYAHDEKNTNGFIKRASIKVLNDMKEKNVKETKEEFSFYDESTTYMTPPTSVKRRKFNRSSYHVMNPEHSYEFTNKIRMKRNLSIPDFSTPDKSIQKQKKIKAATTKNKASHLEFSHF

[4] = system: PfNF54 stage IV/V gametocytes; assay: Late-stage gametocytocidal luciferase reporter assay; assay type: cell-based; details: Plasmodium falciparum, 48 h, read-out: IC50, viability of late-stage gametocytes
[5] = system: P. berghei ANKA GFP-Luc-SMcon sporozoites; assay: P. berghei liver stage assay; assay type: cell-based; details: Plasmodium berghei, HepG2, read-out: IC50, inhibition of parasite invasion of HepG2 liver cells (liver stage)
[6] = system: PI3K (PF3D7_0515300) cKD parasite line; assay: Susceptibility assay with PI3K conditional knockdown line; details: no aTc vs high aTc
PI4Kβ (PF3D7_0509800) = PI4Kβ (PF3D7_0509800) (Plasmodium falciparum, UniProt Q8I406); assay: Kinobead chemoproteomic competition binding, Pf3D7 ABS extract; details: read-out: Kd app for PI4Kβ; Kinobeads, P. falciparum ABS extract
Sequence of PI4Kβ (PF3D7_0509800) (Q8I406 1-1559): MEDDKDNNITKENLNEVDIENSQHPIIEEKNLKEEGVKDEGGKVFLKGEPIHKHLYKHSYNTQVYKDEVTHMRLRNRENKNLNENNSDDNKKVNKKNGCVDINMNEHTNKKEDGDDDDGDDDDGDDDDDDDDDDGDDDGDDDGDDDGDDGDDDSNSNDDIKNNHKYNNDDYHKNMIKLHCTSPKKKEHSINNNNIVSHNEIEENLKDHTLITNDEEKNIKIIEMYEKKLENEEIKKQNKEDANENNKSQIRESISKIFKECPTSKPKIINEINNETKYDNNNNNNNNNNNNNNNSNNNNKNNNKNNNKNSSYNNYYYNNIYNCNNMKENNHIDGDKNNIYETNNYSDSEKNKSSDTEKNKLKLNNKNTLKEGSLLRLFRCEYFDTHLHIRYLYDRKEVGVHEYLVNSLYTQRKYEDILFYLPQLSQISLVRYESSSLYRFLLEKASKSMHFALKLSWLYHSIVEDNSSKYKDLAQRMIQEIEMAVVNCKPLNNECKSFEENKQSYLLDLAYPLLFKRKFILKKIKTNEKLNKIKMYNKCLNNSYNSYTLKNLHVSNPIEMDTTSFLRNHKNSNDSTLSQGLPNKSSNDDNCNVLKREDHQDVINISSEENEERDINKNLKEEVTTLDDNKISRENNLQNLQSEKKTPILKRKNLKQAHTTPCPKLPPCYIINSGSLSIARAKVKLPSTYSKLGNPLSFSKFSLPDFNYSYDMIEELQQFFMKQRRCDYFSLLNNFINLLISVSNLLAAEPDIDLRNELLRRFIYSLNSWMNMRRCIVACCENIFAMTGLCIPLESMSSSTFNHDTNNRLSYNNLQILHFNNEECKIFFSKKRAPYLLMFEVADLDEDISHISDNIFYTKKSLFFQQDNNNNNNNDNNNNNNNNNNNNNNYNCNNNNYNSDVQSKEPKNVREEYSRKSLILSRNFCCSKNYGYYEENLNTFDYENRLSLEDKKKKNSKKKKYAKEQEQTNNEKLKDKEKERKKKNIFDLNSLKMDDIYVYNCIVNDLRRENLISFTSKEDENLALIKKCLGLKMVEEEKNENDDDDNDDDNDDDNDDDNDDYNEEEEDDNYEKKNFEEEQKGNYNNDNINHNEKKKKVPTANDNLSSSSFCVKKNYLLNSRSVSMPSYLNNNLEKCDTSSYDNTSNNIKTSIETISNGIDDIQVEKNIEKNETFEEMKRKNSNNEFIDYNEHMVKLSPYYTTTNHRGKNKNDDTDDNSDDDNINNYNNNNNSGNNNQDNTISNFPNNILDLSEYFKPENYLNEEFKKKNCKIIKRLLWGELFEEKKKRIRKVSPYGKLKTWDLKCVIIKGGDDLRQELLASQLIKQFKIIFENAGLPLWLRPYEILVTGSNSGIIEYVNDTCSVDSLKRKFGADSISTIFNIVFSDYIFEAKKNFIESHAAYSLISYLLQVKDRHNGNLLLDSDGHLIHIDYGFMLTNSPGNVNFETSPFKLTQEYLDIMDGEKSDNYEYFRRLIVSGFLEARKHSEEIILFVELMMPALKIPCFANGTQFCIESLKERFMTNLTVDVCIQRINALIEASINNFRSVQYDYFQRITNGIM

[7] = system: male gamete formation from stage V gametocytes; assay: Male gamete exflagellation inhibition assay; assay type: cell-based; details: Plasmodium falciparum, 48 h, read-out: inhibition of male gamete formation (EIA)
[8] = system: control cell line expressing an aptamer-regulatable fluorescent protein; assay: Susceptibility assay with aptamer-regulatable control line; details: low vs high aTc
Pf3D7 = assay: P. falciparum NSG mouse model of infection, 4-day test; assay type: in vivo, Plasmodium falciparum; details: day 7, single daily oral dose for four days, NSG mice
Pf3D7 trophozoites = assay: Metabolomic perturbation profiling by LC-MS; assay type: cell-based, Plasmodium falciparum; details: 10-fold the IC50 for 2.5 hours, vs no-drug control
Tolerability = assay type: in vivo; details: 10 mg/kg oral once daily, both animals
[9] = system: PfNF54 stages II/III gametocytes; assay: Early-stage gametocytocidal luciferase reporter assay; assay type: cell-based; details: Plasmodium falciparum, read-out: inhibition of early-stage gametocytes
PfNF54 strain = assay: In vitro ABS activity against PfNF54 strain; assay type: cell-based; details: Plasmodium falciparum, read-out: in vitro IC50 against PfNF54 strain
[10] = biological target: T2, protein kinase 2 (PK2; PF3D7_1238900) (Plasmodium falciparum, UniProt Q8I534); assay: Kinobead chemoproteomic competition binding, Pf3D7 ABS extract; details: read-out: Kd app for PK2; Kinobeads, P. falciparum ABS extract
T2 sequence (Q8I534 1-509): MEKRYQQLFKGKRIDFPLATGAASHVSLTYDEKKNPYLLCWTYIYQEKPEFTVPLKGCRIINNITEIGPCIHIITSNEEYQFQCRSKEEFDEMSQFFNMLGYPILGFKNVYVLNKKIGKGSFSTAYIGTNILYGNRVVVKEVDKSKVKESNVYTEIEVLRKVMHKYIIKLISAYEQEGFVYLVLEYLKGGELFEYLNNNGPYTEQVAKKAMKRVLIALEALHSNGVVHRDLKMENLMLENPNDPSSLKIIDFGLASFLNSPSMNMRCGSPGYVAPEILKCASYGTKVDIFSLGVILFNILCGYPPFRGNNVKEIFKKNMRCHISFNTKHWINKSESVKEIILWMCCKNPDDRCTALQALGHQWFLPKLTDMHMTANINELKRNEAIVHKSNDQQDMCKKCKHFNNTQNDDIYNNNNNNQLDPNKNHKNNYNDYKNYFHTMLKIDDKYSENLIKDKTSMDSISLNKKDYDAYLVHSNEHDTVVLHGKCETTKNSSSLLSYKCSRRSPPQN

[11] = system: PfNF54 stage V gametocytes; assay: Standard membrane feeding assay; set-up: species or system Plasmodium falciparum; details: 2 μM, stage V gametocytes incubated 48 hours before feeding; mean ±SD
[12] = system: PKG (PF3D7_1436600) cKD parasite line; assay: Susceptibility assay with PKG conditional knockdown line; details: low aTc (2 nM) vs high aTc
[13] = biological target: PI3K (Vps34; PF3D7_0515300) (Plasmodium falciparum, UniProt Q8I3V5); assay: Lipid-Kinobead chemoproteomic competition binding, Pf3D7 ABS extract; details: read-out: Kd app for PI3K; Lipid-Kinobeads, N = 1
Sequence of PI3K (Vps34; PF3D7_0515300) (Q8I3V5 1-2133): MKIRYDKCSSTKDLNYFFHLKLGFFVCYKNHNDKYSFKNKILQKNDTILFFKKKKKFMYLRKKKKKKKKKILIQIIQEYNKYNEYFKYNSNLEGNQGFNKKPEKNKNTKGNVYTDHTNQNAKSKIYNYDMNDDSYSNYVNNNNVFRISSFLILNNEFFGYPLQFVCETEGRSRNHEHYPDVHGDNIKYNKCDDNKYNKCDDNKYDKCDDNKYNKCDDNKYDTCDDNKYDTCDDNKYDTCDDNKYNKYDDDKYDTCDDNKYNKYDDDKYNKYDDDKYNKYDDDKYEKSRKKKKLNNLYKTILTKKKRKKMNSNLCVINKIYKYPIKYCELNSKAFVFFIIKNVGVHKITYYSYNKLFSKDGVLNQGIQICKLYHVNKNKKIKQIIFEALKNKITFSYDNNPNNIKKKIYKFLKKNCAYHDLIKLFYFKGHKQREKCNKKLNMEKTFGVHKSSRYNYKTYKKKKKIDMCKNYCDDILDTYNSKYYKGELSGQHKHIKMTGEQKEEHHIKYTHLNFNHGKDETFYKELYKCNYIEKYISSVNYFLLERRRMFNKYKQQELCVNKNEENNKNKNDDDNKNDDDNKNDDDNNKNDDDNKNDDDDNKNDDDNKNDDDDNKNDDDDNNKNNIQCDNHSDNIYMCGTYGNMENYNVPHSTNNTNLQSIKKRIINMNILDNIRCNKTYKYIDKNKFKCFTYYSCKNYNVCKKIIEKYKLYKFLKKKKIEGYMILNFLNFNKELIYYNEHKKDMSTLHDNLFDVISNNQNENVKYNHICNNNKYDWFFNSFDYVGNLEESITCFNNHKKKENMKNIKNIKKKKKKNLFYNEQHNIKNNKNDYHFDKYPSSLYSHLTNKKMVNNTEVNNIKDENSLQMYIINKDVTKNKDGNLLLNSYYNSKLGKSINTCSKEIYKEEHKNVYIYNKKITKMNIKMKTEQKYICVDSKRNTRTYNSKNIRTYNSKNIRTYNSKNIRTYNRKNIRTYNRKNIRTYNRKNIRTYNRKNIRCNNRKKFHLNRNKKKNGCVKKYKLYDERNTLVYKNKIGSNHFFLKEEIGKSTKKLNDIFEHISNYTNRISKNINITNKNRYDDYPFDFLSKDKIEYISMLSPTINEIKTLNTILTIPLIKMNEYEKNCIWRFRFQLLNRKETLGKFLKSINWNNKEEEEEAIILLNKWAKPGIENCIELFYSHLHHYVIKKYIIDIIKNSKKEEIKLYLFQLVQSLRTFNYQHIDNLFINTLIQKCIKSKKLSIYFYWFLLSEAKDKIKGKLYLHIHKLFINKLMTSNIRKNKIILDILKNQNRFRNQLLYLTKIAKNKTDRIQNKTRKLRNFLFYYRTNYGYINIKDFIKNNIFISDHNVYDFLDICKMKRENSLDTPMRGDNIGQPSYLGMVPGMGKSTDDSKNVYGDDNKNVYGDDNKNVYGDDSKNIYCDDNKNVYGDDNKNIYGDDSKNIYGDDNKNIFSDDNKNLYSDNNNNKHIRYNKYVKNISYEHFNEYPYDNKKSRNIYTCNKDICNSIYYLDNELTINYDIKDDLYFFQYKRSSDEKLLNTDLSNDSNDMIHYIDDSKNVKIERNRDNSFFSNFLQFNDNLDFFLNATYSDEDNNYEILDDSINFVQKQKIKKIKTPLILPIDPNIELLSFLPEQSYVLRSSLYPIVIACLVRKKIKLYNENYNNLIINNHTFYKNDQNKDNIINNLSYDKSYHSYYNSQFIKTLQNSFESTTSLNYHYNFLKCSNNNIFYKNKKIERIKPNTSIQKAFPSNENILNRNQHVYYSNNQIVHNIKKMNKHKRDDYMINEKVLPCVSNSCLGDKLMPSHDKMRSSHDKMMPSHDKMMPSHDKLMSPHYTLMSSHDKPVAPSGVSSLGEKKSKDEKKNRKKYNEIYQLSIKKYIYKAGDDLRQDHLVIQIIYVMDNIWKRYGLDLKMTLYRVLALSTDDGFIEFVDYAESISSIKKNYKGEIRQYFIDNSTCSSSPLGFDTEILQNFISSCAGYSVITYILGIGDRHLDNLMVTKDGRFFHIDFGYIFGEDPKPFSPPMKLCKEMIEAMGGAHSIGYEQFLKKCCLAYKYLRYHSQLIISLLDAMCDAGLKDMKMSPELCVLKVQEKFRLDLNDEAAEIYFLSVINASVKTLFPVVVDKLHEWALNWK

Sequence of casein kinase 1 (CK1; PF3D7_1136500) (Q8IHZ9 whole entry): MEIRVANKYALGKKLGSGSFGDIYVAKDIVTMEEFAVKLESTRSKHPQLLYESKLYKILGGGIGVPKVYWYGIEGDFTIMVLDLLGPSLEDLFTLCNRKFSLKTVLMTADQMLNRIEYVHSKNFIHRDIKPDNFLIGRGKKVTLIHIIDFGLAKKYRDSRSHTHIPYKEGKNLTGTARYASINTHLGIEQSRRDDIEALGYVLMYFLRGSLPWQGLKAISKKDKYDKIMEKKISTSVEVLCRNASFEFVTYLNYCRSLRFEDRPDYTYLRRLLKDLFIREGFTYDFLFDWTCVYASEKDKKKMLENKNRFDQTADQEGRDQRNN

For `COc1ccc(C[C@H](N)C(=O)N[C@H]2[C@@H](O)[C@H](n3cnc4c(N(C)C)ncnc43)O[C@@H]2CO)cc1` [Puromycin], the IC50 (in vitro) was 588 ± 3 nM.

For `Nc1ccc(-c2ccc3ncc4ccc(=O)n(-c5cccc(C(F)(F)F)c5)c4c3c2)cn1` [Torin-2], the IC50 (PfPI3K) is given as 0.6 nM.

For `CC(C)n1nc(-c2ccc3oc(N)nc3c2)c2c(N)ncnc21` [sapanisertib], the Kd [1] was less than 1000 nM, the “whole-blood exposure level (below lowest limit of quantification)” value ([2]; 0.05 mg/kg oral) was less than 1 ng/mL and the “whole-blood exposure level (below lowest limit of quantification)” value ([2]; 0.1 mg/kg oral) was less than 1 ng/mL. For the same compound, the Kd [3] was less than 1000 nM, the IC50 [4] was 538 nM and the IC50 [5] was 134 nM. The “differential susceptibility on PI3K knockdown” value [6] was “did not reveal differential susceptibility”, the Kd (PI4Kβ (PF3D7_0509800)) was no more than 50 nM and the inhibition at 2 µM [7] was 89%. For the same compound, the “differential susceptibility, aptamer-regulatable control line” value [8] was “did not reveal differential susceptibility”, the “ED90 (dose reducing parasitemia by 90% vs untreated control)” value (Pf3D7) was 0.88 mg/kg and the “effect on hemoglobin-derived peptide levels” value (Pf3D7 trophozoites) was “disruption and reduction”. The “weight loss (humane end point reached before day 7)” value (Tolerability) was no less than 15%, the inhibition at 5 µM [9] was 30% and the IC50 (PfNF54 strain) was 58 nM and 0.018 µg/mL. The Kd [10] was less than 1000 nM, the “transmission-reducing activity (TRA), reduction in mean oocyst formation” value [11] was 54% and the “differential susceptibility on PKG knockdown” value [12] was “did not reveal differential susceptibility”. For the same compound, the Kd [13] was ≤ 50 nM and 50 nM.

Reference: article PMC9951552 (Science translational medicine, 2022)
